Reference: US20140357512A1, “HISTONE DEACETYLASE (HDAC) BIOMARKERS IN MULTIPLE MYELOMA” (priority 2013, published 2014)

Tested on: human myeloma cell line MM.1S
Experiment: SILAC acetylated-lysine peptide profiling, HDAC inhibitor vs DMSO (light/heavy ratio)
Format: cell-based
Description: An embodiment of the invention comprises utilizing the SILAC method in order to quantitate changes in protein expression between two or more populations of cells. The SILAC method is a technique based on mass spectrometry that detects differences in protein abundance among samples using non-radioactive isotopic labeling. The SILAC method is known in the art, and described in detail in Ong et al., “Stable Isotope Labeling by Amino Acids in Cell Culture, SILAC, as a Simple and Accurate Approach to Expression Proteomics”, Molecular & Cellular Proteomics, vol. 1, pp. 376-386 (2002), which is incorporated herein by reference in its entirety.
Briefly, the SILAC method involves growing two populations of cells in cell culture. The first population of cells is grown in growth media containing normal amino acids (“normal media”). The second population of cells is grown in media lacking a standard essential amino acid (such as lysine), but is then supplemented with a non-radioactive, isotopically labeled form of that essential amino acid (such as lysine labeled with ^13C atoms, rather than normal ^12C atoms), which is called “heavy media”. When the two populations of cells are each growing in the medium, they incorporate the amino acids into all of their proteins. The growth of cells maintained in the heavy media is no different from that in normal media. All peptides containing the heavy amino acids are heavier than their normal counterparts. The cells from each of the two populations of cells are lysed. The lysates from each of the two cell populations are then combined. The combined cell lysates are then analyzed by mass spectrometry. Pairs of chemically identical peptides of different stable isotope composition can be differentiated in a mass spectrometer due to their difference in mass. The ratio of peak intensities in the mass spectrum for such peptide pairs reflects the abundance ratio for the two proteins.
This example describes SILAC studies that were performed to compare the effects of three different HDAC inhibitors (Compound A, Compound B, and tubastatin A) to a control on a human multiple myeloma cell line. The HDAC inhibitors were also compared amongst themselves to determine differences in their effects.
A human myeloma cell line MM.1S was grown using either ^12C (light) or ^13C (heavy) lysine containing culture medium. The “heavy” cells were treated with DMSO as the control, and the “light” cells were treated with a single HDAC inhibitor at 37° C. for 6 hours. The heavy and light cells were lysed, and the lysates were mixed in 1:1 ratio and digested with the protease trypsin. The acetylated lysine containing peptides (due to the action of the HDAC inhibitor) in the digested peptide pool were captured by a non-specific anti-acetylated lysine antibody cocktail (the antibodies identify both light and heavy acetylated peptides), and subjected to mass spectrometry analysis in order to identify thousands of individual peptides.
Thousands of peptides were identified in pairs (^12C and ^13C) due to their known mass differences. The amino acid sequence and quantitative ratio (Light/Heavy) of a given peptide in two differentially treated cell lysates were then determined and annotated with their possible protein (gene) sources.
As stated above, three HDAC inhibitors (Compound A, Compound B, and Tubastatin A) were used. Thus, the SILAC method was performed three times, with a different HDAC inhibitor compared to a control each time. Accordingly, there are three pairs of quantitative data in the table below, i.e., Compound A:DMSO, Compound B:DMSO, and Tubastatin A:DMSO. A cut-off of 1.30 fold of change (increase or decrease) was then used to determine “changed” or “+” in the table, and any peptides with a fold of change less than 1.3 fold were determined to be “unchanged” or “0” in the table. Those peptides that were not identified were marked as “NA” in the table. […]

Compound: O=C(NO)c1cnc(NC2(c3cccc(F)c3)CCCCC2)nc1 [Compound B, 2-((1-(3-fluorophenyl)cyclohexyl)amino)-N-hydroxypyrimidine-5-carboxamide]
- light to heavy ratio (L/H ratio), log 2 scale, acetylated peptide VGDK(ac)[…] (SEQ ID NO: 773) (10 kDa heat shock protein mitochondrial [70], gene HSPE1, drug:DMSO): 0.00
- light to heavy ratio (L/H ratio) of acetylated peptide IQEVLK(ac)HAR (SEQ ID NO: 264) (39S ribosomal protein L20 mitochondrial [26], MRPL20, drug:DMSO): 0.00 log 2
- light to heavy ratio (L/H ratio) of acetylated peptide KDVHMPK(ac)HPELADK (SEQ ID NO: 353) (40S ribosomal protein S10 [31], RPS10, drug:DMSO): 0.56 log 2
- light to heavy ratio (L/H ratio) of acetylated peptide NK(ac)[…] (SEQ ID NO: 559) (40S ribosomal protein S17 [49], gene RPS17, RPS17L, inhibitor:DMSO): 0.00 log 2
- light to heavy ratio (L/H ratio) of acetylated peptide IDK(ac)PILK (SEQ ID NO: 506) (60S ribosomal protein L8 [177], gene RPL8, inhibitor:DMSO): 0.00 log 2
- light to heavy ratio (L/H ratio) of acetylated peptide GPLDK(ac)WR (SEQ ID NO: 622) (60S ribosomal protein L10-like [208], gene RPL10L, inhibitor:DMSO): 0.00 log 2
- light to heavy ratio (L/H ratio), log 2 scale, acetylated peptide YMVK(ac)SCGK (SEQ ID NO: 811) (60S ribosomal protein L10 [78], gene SNORA70, RPL10, drug:DMSO): 0.00
- light to heavy ratio (L/H ratio), log 2 scale, acetylated peptide VDEVK(ac)STIK (SEQ ID NO: 805) (60S ribosomal protein L10a [152], gene RPL10A, drug:DMSO): 0.00
- light to heavy ratio (L/H ratio) of acetylated peptide VITEEEK(ac)NFK (SEQ ID NO: 522) (60S ribosomal protein L13 [174], gene RPL13, inhibitor:DMSO): 0.00 log 2
- light to heavy ratio (L/H ratio) of acetylated peptide K(ac)FAYLGR (SEQ ID NO: 614) (60S ribosomal protein L13a [134], gene SNORD32A, RPL13A, SNORD33, SNORD34, inhibitor:DMSO): 0.00 log 2
- light to heavy ratio (L/H ratio), log 2 scale, acetylated peptide LAHEVGWK(ac)[…] (SEQ ID NO: 812) (60S ribosomal protein L13a [148], gene SNORD32A, RPL13A, SNORD33, SNORD34, drug:DMSO): 0.00
- light to heavy ratio (L/H ratio) of acetylated peptide GHK(ac)FHHTIGGSR (SEQ ID NO: 519) (60S ribosomal protein L15 [179], gene RPL15, inhibitor:DMSO): 0.00 log 2
- light to heavy ratio (L/H ratio), log 2 scale, acetylated peptide SFVK(ac)[…] (SEQ ID NO: 770) (60S ribosomal protein L27 [73], gene RPL27, drug:DMSO): 0.00
- light to heavy ratio (L/H ratio), log 2 scale, acetylated peptide YSVDIPLDK(ac)TVVNK (SEQ ID NO: 807) (60S ribosomal protein L27 [93], gene RPL27, drug:DMSO): 0.00
- light to heavy ratio (L/H ratio) of acetylated peptide NCSSFLIK(ac)R (SEQ ID NO: 558) (60S ribosomal protein L28 [19], gene RPL28, inhibitor:DMSO): 0.00 log 2
- light to heavy ratio (L/H ratio) of acetylated peptide IHGVGFK(ac)K (SEQ ID NO: 542) (60S ribosomal protein L31 [39], gene RPL31, inhibitor:DMSO): 0.00 log 2
- light to heavy ratio (L/H ratio), log 2 scale, acetylated peptide LNK(ac)AVWAK (SEQ ID NO: 808) (60S ribosomal protein L31 [70], gene RPL31, drug:DMSO): 0.00
- light to heavy ratio (L/H ratio) of acetylated peptide LWSK(ac)AIFAGYK (SEQ ID NO: 538) (60S ribosomal protein L35a [8], gene RPL35A, inhibitor:DMSO): 0.00 log 2
- light to heavy ratio (L/H ratio) of acetylated peptide KIEISQHAK(ac)YTCSFCGK (SEQ ID NO: 351) (60S ribosomal protein L37a [36], RPL37A, drug:DMSO): 0.41 log 2
- light to heavy ratio (L/H ratio) of acetylated peptide VMEHFIK(ac)LYK (SEQ ID NO: 276) (78 kDa glucose-regulated protein [268], HSPA5, drug:DMSO): 0.00 log 2
- light to heavy ratio (L/H ratio) of acetylated peptide AK(ac)[…] (SEQ ID NO: 266) (78 kDa glucose-regulated protein [326], HSPA5, drug:DMSO): 0.00 log 2
- light to heavy ratio (L/H ratio) of acetylated peptide FK(ac)[…] (SEQ ID NO: 333) (116 kDa U5 small nuclear ribonucleoprotein component [790], EFTUD2, drug:DMSO): −0.99 log 2
- L/H ratio of acetylated peptide ((ac)AQLGK(ac)LLK (SEQ ID NO: 421), NEDD8-activating enzyme E1 regulatory subunit [6], NAE1): 0.70 log 2
- L/H ratio of acetylated peptide ((ac)MEDYTK(ac)IEK (SEQ ID NO: 374), Isoform 2 of Cyclin-dependent kinase 1 [6], CDK1): −0.51 log 2
- light to heavy ratio (L/H ratio) of acetylated peptide, log 2 scale ((ac)SIGVPIK(ac)[…] (SEQ ID NO: 224), Small nuclear ribonucleoprotein Sm D3 [8], SNRPD3): 0.00
- L/H ratio of acetylated peptide ((ac)SNMEK(ac)HLFNLK (SEQ ID NO: 376), Charged multivesicular body protein 1b [6], CHMP1B): 0.85 log 2
- L/H ratio of acetylated peptide ((ac)SSNECFK(ac)CGR (SEQ ID NO: 379), Isoform 1 of Cellular nucleic acid-binding protein [8], CNBP): −0.82 log 2
- light to heavy ratio (L/H ratio) of acetylated peptide, log 2 scale ((ac)SVFGK(ac)LFGAGGGK (SEQ ID NO: 143), Charged multivesicular body protein 4b [6], CHMP4B): 0.00
- L/H ratio of acetylated peptide ((ac)[…](ac)DLK (SEQ ID NO: 437), Isoform 2 of Prothymosin alpha [15], PTMA, MIR1244-3, MIR1244-2, MIR1244-1): 0.61 log 2
- L/H ratio of acetylated peptide ((ac)[…](ac)SAR (SEQ ID NO: 464), Voltage-dependent anion-selective channel protein 1 [12], VDAC1): −0.78 log 2
- L/H ratio of acetylated peptide (ACK(ac)LAIR (SEQ ID NO: 463), Transitional endoplasmic reticulum ATPase [696], VCP): −0.58 log 2
- L/H ratio of acetylated peptide NLQK(ac)EVIHR (SEQ ID NO: 125) (ACOX1 [504], log 2 scale, drug vs DMSO): 0.00
